From ChEMBL document CHEMBL2424579, “Quinazolin-4-one derivatives as selective histone deacetylase-6 inhibitors for the treatment of Alzheimer's disease” (J Med Chem, 2013)
The source made the active and inactive calls. The rule behind the calls is not given here.

Assays:
[1] = biological target: T1, Amyloid-beta precursor protein (Homo sapiens, UniProt P05067); assay: Inhibition of amyloid beta aggregation (unknown origin) after 4 hrs by thioflavin S assay in absence of Zn2+
[2] = biological target: T1, Amyloid-beta precursor protein; assay: Inhibition of amyloid beta aggregation (unknown origin) after 4 hrs by thioflavin S assay in presence of Zn2+
Homo sapiens [3] = species: Homo sapiens; assay: Selectivity index, ratio of IC50 for human recombinant HDAC1 to IC50 for human recombinant HDAC6
Homo sapiens [4] = species: Homo sapiens; assay: Selectivity index, ratio of IC50 for human recombinant HDAC8 to IC50 for human recombinant HDAC6
Histone deacetylase 11 = biological target: T2, Histone deacetylase 11 (Homo sapiens, UniProt Q96DB2); assay: Inhibition of human recombinant HDAC11 expressed in baculovirus/sf9 cells using RHKKAc as substrate
T2 sequence (Q96DB2 whole entry): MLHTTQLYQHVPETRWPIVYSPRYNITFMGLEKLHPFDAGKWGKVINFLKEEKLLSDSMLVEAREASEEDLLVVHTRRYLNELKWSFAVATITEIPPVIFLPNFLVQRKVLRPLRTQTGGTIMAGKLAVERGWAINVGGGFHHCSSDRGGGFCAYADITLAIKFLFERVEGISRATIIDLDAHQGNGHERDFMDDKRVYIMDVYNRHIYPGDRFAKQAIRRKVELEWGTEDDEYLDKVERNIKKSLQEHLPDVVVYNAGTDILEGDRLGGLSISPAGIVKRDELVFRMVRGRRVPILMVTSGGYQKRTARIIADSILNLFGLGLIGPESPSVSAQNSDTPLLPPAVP

[5] = biological target: T3, Protein deacetylase HDAC6 (Homo sapiens, UniProt Q9UBN7); assay: Inhibition of human recombinant HDAC6 expressed in baculovirus/sf9 cells using RHKKAc as substrate
T3 sequence (Q9UBN7 whole entry): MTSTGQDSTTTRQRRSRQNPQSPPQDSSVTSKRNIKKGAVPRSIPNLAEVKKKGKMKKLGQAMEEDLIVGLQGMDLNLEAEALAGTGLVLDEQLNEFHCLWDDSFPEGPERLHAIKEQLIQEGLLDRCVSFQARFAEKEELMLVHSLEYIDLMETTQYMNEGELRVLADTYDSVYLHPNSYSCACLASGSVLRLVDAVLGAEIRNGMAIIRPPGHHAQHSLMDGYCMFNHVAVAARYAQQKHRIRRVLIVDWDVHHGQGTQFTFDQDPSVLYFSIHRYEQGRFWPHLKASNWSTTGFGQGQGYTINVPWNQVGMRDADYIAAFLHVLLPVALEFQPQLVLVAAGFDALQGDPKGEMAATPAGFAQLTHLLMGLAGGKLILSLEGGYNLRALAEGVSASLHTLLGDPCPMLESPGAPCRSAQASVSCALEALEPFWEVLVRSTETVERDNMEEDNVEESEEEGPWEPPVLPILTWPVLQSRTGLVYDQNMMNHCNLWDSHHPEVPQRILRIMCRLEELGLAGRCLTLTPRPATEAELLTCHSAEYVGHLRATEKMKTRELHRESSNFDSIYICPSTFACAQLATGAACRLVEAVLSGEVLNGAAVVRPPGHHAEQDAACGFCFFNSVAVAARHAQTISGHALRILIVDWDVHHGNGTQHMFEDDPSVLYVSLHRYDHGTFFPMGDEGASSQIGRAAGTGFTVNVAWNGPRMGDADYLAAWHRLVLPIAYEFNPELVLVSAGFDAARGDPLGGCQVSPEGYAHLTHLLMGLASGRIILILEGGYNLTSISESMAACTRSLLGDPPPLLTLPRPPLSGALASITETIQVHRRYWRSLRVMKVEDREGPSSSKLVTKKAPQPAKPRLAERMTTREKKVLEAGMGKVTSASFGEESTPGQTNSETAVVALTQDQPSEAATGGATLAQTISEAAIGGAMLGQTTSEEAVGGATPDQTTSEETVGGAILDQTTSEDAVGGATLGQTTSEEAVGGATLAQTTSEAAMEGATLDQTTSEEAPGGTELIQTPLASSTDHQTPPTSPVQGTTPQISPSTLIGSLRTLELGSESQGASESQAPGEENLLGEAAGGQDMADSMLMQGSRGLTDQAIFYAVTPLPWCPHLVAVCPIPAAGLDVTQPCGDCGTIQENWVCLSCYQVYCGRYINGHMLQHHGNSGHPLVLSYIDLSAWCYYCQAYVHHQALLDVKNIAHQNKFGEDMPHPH

[6] = biological target: T4, Polyamine deacetylase HDAC10 (Homo sapiens, UniProt Q969S8); assay: Inhibition of human recombinant HDAC10 expressed in baculovirus/sf9 cells using RHKKAc as substrate
T4 sequence (Q969S8 whole entry): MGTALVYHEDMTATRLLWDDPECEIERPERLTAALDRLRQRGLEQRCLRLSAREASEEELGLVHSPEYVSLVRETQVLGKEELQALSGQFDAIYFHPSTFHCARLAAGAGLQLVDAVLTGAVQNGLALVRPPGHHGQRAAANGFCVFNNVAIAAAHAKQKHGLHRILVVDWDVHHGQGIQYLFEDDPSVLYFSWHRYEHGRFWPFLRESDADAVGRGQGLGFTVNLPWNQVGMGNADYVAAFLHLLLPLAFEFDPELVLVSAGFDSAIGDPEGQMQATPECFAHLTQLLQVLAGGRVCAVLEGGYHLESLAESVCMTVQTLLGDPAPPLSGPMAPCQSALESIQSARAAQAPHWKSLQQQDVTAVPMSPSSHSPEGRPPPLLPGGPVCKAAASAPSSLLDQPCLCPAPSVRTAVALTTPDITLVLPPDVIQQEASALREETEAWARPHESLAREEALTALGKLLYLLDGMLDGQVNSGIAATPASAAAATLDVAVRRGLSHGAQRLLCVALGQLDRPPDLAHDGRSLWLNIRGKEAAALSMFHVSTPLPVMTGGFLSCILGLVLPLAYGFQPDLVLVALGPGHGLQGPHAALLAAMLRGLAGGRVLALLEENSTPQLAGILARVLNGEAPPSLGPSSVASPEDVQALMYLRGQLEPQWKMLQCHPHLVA

Histone deacetylase 8 = biological target: T5, Histone deacetylase 8 (Homo sapiens, UniProt Q9BY41); assay: Inhibition of human recombinant HDAC8 expressed in baculovirus/sf9 cells using RHKAcKAc as substrate
T5 sequence (Q9BY41 whole entry): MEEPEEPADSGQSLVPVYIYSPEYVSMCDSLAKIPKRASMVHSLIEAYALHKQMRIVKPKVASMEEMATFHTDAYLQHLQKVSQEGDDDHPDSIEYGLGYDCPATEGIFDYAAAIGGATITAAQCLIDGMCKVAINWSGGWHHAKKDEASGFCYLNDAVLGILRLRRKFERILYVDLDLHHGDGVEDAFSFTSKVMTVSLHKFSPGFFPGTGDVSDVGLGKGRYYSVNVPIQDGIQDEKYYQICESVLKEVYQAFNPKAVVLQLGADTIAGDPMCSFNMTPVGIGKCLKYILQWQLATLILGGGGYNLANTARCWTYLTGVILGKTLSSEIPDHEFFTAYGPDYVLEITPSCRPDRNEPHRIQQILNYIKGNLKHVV

Histone deacetylase 1 = Histone deacetylase 1 (Homo sapiens, UniProt Q13547); assay: Inhibition of human recombinant HDAC1 expressed in baculovirus/sf9 cells using RHKKAc as substrate
Chain of Histone deacetylase 1 (Q13547 whole entry): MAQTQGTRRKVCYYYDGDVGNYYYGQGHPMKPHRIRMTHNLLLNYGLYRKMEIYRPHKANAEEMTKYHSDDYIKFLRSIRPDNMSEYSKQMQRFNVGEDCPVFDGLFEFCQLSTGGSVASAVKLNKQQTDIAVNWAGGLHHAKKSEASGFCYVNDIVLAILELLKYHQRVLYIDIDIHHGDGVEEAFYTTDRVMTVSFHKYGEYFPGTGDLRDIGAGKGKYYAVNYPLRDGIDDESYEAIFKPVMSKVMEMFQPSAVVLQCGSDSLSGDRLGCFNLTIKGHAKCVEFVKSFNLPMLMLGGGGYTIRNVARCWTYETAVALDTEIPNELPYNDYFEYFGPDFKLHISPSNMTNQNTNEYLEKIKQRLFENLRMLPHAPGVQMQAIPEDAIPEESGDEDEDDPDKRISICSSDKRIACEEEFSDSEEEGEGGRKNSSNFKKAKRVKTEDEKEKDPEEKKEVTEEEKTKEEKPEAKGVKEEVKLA

Histone deacetylase 2 = Histone deacetylase 2 (Homo sapiens, UniProt Q92769); assay: Inhibition of human recombinant HDAC2 expressed in baculovirus/sf9 cells using RHKKAc as substrate
Chain of Histone deacetylase 2 (Q92769 whole entry): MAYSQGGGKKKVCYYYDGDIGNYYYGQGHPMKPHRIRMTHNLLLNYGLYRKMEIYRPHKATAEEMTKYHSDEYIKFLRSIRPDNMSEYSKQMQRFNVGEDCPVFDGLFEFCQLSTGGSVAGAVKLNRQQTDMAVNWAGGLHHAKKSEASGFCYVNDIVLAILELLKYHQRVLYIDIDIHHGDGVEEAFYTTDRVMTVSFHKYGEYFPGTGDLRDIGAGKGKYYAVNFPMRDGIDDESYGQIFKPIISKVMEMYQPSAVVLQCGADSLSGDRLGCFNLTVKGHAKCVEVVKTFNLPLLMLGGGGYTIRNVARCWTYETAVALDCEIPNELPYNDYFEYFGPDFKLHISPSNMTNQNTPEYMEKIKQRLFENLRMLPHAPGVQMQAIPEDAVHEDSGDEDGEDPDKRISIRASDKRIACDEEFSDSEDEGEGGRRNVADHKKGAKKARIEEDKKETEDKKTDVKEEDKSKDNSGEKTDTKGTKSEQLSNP

Vero = assay: Cytotoxicity against african green monkey Vero cells at 25 uM; assay type: cell-based; details: chlorocebus sabaeus
[7] = Cytotoxicity against human SH-SY5Y cells at 25 uM; assay type: cell-based
PC-12 [8] = assay: Cytotoxicity against rat PC12 cells at 25 uM; assay type: cell-based; details: pc-12, 25 µM
PC-12 [9] = assay: Induction iof GAP-43 protein expression in rat PC12 cells at 0.1 uM after 48 hrs by Western blotting analysis; assay type: functional, cell-based
PC-12 [10] = assay: Inhibition of HDAC6 in rat PC12 cells assessed as induction of alpha-tubulin acetylation after 48 hrs by Western blotting analysis; assay type: cell-based
PC-12 [11] = assay: Induction iof GAP-43 protein expression in rat PC12 cells after 48 hrs by Western blotting analysis; assay type: functional, cell-based
SH-SY5Y [12] = assay: Induction of neurite outgrowth in human SH-SY5Y cells at 10 uM after 5 days; assay type: functional, cell-based
PC-12 [13] = assay: Induction of neurite outgrowth in rat PC12 cells at 10 uM after 5 days; assay type: functional, cell-based
[14] = biological target: Poly [ADP-ribose] polymerase 1 (Homo sapiens) (UniProt P09874); assay: Inhibition of PARP1 (unknown origin) up to 25 uM
Chain of Poly [ADP-ribose] polymerase 1 (Homo sapiens) (P09874 whole entry): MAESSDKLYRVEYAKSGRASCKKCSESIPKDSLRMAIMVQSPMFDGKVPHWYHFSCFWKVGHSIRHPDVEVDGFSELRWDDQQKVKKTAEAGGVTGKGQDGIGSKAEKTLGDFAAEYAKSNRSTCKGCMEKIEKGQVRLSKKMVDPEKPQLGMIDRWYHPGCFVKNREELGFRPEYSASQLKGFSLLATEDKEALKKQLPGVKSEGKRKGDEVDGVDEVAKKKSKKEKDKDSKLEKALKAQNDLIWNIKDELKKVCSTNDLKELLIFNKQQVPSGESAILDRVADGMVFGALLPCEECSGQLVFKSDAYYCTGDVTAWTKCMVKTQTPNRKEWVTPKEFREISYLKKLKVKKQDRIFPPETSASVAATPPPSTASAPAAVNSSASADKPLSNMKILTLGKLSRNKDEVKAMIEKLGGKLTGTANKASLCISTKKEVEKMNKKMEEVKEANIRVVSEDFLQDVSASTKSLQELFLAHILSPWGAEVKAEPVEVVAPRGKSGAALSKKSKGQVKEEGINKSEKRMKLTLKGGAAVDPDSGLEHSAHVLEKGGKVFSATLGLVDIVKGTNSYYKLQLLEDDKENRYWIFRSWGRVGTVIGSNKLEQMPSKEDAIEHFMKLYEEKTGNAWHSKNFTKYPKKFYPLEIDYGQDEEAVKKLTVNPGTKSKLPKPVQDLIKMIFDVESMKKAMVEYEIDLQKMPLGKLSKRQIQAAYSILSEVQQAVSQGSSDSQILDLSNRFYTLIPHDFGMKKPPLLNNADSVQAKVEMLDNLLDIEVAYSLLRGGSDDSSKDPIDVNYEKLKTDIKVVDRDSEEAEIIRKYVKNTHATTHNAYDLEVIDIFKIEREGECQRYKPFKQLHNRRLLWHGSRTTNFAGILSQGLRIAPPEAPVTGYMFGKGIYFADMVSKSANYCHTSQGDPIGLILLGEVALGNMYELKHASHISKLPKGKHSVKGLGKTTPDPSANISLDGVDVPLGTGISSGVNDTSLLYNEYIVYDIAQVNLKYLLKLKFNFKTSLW

Mus musculus [15] = assay: Antialzheimer activity in wild type learning-impaired Balb/c mouse model with hippocampal lesions at 10 mg/kg, ip administered for 30 days by rotarod test relative to vehicle-treated control; details: Hippocampus, TDE = time-dependent effect
Mus musculus [16] = assay: Antialzheimer activity in wild type learning-impaired Balb/c mouse model with hippocampal lesions assessed as increase in acetylated alpha-tubulin level in hippocampus region at 10 mg/kg, ip administered for 30 days by rotarod test
PC-12 [17] = assay: Inhibition of HDAC6 in rat PC12 cells assessed as acetylation of histone H3 at 10 uM after 48 hrs by Western blotting analysis; assay type: cell-based
PC-12 [18] = assay: Inhibition of HDAC6 in rat PC12 cells assessed as induction of alpha-tubulin acetylation at 10 uM after 48 hrs by Western blotting analysis; assay type: cell-based
SH-SY5Y [19] = assay: Increase of synaptic activity in human SH-SY5Y cells after 5 days by fluorescence assay; assay type: functional, cell-based; details: 120 h
SH-SY5Y [20] = assay: Induction of neurite outgrowth in human SH-SY5Y cells after 5 days; assay type: functional, cell-based; details: 120 h
PC-12 [21] = assay: Increase of synaptic activity in rat PC12 cells after 5 days by fluorescence assay; assay type: functional, cell-based; details: PC-12, 120 h
PC-12 [22] = assay: Induction of neurite outgrowth in rat PC12 cells after 5 days; assay type: functional, cell-based; details: PC-12, 120 h

T1 sequence (P05067 whole entry): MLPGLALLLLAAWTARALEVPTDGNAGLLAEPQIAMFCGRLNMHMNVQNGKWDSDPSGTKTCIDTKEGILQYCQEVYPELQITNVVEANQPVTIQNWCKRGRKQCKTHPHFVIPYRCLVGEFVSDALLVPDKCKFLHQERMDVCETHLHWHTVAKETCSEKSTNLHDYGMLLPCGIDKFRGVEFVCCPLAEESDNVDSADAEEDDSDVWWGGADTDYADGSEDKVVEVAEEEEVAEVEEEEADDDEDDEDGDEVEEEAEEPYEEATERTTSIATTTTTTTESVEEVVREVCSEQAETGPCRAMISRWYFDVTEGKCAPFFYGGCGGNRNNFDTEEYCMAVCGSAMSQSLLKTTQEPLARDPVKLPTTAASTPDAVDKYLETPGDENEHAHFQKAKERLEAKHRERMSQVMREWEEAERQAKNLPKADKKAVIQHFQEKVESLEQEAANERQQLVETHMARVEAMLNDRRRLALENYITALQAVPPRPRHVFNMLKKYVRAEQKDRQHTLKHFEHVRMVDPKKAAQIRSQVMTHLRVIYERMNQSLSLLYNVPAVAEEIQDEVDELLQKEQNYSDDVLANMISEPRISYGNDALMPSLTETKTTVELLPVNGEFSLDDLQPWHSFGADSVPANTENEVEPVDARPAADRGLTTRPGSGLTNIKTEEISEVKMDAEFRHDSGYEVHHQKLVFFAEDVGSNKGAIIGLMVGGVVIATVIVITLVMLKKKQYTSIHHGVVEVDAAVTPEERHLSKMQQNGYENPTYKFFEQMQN

Compound	IC50 [1]	IC50 [2]	Ratio IC50 (Homo sapiens [3])	Ratio IC50 (Homo sapiens [4])	IC50 (Histone deacetylase 11)	IC50 [5]	IC50 [6]	IC50 (Histone deacetylase 8)	IC50 (Histone deacetylase 1)	IC50 (Histone deacetylase 2)	Activity (Vero)	Activity [7]	Activity (PC-12 [8])	Activity (PC-12 [11])	Activity (SH-SY5Y [12])	Activity (PC-12 [13])	inhibition [14]	further results
Cc1nc2ccc(/C=C/C(=O)NO)cc2c(=O)n1-c1ccccc1	> 50 µM	> 50 µM	65	19	5.22 µM	0.032 µM	5.14 µM	0.609 µM	2.09 µM	7.48 µM	Non-toxic	Non-toxic	Non-toxic					
Cc1nc2cccc(/C=C/C(=O)NO)c2c(=O)n1-c1ccccc1	> 50 µM	> 50 µM	10	< 1	> 10 µM	1.92 µM	> 10 µM	1.06 µM	18.6 µM	> 10 µM	Non-toxic	Non-toxic	Non-toxic					
Cc1nc2c(/C=C/C(=O)NO)cccc2c(=O)n1-c1ccccc1	> 50 µM	> 50 µM	70	< 1	> 10 µM	0.69 µM	29.8 µM	0.42 µM	48.5 µM	> 10 µM	Non-toxic	Non-toxic	Non-toxic					
Cc1nc2cc(/C=C/C(=O)NO)ccc2c(=O)n1-c1ccccc1					1.35 µM	0.088 µM	17.5 µM	3.88 µM		1.61 µM	Non-toxic	Non-toxic	Non-toxic	Dose-dependent effect	Active	Active	inactive	Activity (PC-12 [9]): Active; inhibition (PC-12 [10]): Dose-dependent effect; Activity (Mus musculus [15]): tde; Activity (Mus musculus [16]): Active
CCc1nc2cc(Cc3ccc(C(=O)NO)cc3)ccc2c(=O)n1CCc1ccccc1					1.32 µM	0.009 µM		0.173 µM	4.85 µM		Non-toxic	Non-toxic	Non-toxic	Dose-dependent effect	Active	Active	inactive	inhibition (PC-12 [17]): Active; inhibition (PC-12 [18]): Active; EC50 (SH-SY5Y [19]): 5.5 µM; EC50 (SH-SY5Y [20]): 9.8 µM; EC50 (PC-12 [21]): 3.6 µM; EC50 (PC-12 [22]): 9.3 µM
CC(/C=C/C(=O)NO)=C\[C@@H](C)C(=O)c1ccc(N(C)C)cc1														Dose-dependent effect	Active	Active		inhibition (PC-12 [17]): Active; inhibition (PC-12 [18]): Active
CCc1nc2cc(F)c(/C=C/C(=O)NO)cc2c(=O)n1CCc1ccccc1					4.68 µM	0.008 µM		0.766 µM	1.94 µM	5.68 µM	Non-toxic	Non-toxic	Non-toxic	Dose-dependent effect	Active	Active	inactive	Activity (PC-12 [9]): Active; inhibition (PC-12 [10]): Dose-dependent effect; EC50 (SH-SY5Y [19]): 4.3 µM; EC50 (SH-SY5Y [20]): 8.6 µM; EC50 (PC-12 [21]): 3.3 µM; EC50 (PC-12 [22]): 7.2 µM
